Assay results from patent publication US4256640A, “Tetrahydrothiopyrano[2,3-b]indole derivatives” (Shionogi & Co., Ltd., priority 1978, dated 1981).
Read-outs that look alike come from different tables or passages of the source.

Experiments:
SLC-Wistar female rats [1] = assay: Analgesic activity b: foot-licking method; format: in vivo, rat; details: read-out: Analgesic Activity b ED50
[2] = Acute toxicity, oral, mice (LD50); details: in vivo, mouse, mortality at 72 hours, P = presumption
Protocol: a. DS male mice (20-25 g) are orally administered a suspension of test compound with gum arabic. The mortality at 72 hours is determined and the LD50 is calculated.

DS male mice = assay: Analgesic activity a: acetic acid writhing method; format: in vivo, mouse; details: read-out: Analgesic Activity a ED50
Protocol: a. Acetic acid writing method
DS male mice (20-23 g) are treated with an intraperitoneal injection of 0.1 ml/10 g of 0.6% acetic acid 30 minutes after oral administration of a test compound. The number of times of writhing for 10 minutes is counted and ED50 is calculated.

SLC-Wistar female rats [3] = assay: Analgesic activity c: Randall and Selitto method; format: in vivo, rat; details: 2 h, read-out: Analgesic Activity c ED50
Protocol: c. Randall and Selitto method A test compound is orally given SLC-Wistar female rats (150-170 g). Five minutes later 0.1 ml of 20% yeast suspension is subcutaneously injected into the plantar tissue of the foot.

[4] = Acute toxicity, oral, rats (LD50); details: in vivo, rat, mortality on the 15th day
Protocol: b. JCL-Wistar female rats (180-220 g) are orally administered a suspension of test compound with gum arabic. The mortality on the 15th day is determined and the LD50 is calculated.

JCL-Wistar female rats = assay: Anti-inflammatory activity: carrageenin foot edema; format: in vivo; details: rat, oral, 50 mg/kg, 1.0% carrageenin, swelling 3 hours later
Protocol: A 0.9% saline solution (0.05 ml) containing 1.0% carrageenin is used as phlogistic agent. After 30 minutes JCL-Wistar female rats (180-200 g) are orally administered a test compound, the phlogistic agent is injected subcutaneously into the plantar of the foots of the rats. The volume of swelling is measured 3 hours later and anti-edema activity is determined by calculating the percentage ratio of the edematous volume of medicated foot of that of non-medicated foot.

[5] = rat, oral, 30 min before 3.7% formaldehyde s.c. in hind-paw, foot-licking for 50 minutes
[6] = mouse, oral, 30 min before 0.6% acetic acid i.p., writhing counted for 10 minutes
[7] = rat, oral, 5 min before 20% yeast s.c. in foot, pain threshold at 120 minutes

Row | Structure (SMILES) | ED50 (SLC-Wistar female rats [1]; Rattus norvegicus, po) [mg/kg] | LD50 at 72 h [2] [mg/kg] | ED50 (DS male mice; Mus musculus, po) [mg/kg] | ED50 (SLC-Wistar female rats [3]; po) [mg/kg] | LD50 at 360 h [4] [mg/kg] | ED50 (SLC-Wistar female rats [1]; [5]) [mg/kg] | ED50 (DS male mice; [6]) [mg/kg] | Anti-inflammatory Activity (JCL-Wistar female rats) [%] | ED50 (SLC-Wistar female rats [3]; [7]) [mg/kg]
1 | COc1ccc2c(c1)c(CC(=O)O)c(C)n2C(=O)c1ccc(Cl)cc1 [Idomethacin, reference compound] | 65 | 17 | 7 | 14 | 14 | – | – | – | –
2 | CC(=O)n1c2c(c3ccccc31)C(CN(C)C)CCS2 (stereo not shown) [Comp. 4] | – | ~175 | – | – | – | 4.7 | 21 | 44 | 15.9
3 | CNCC1CCSc2[nH]c3ccccc3c21 (stereo not shown) [Comp. 1, 4-Methylaminomethyl-2,3,4,9-tetrahydrothiopyrano[2,3-b]indole] | – | 409 | – | – | 295 | 1.6 | 4.2 | 66 | 8.4
4 | CNCC1CCSc2c1c1ccccc1n2C (stereo not shown) [Comp. 2, 9-Methyl-4-methylaminomethyl-2,3,4,9-tetrahydrothiopyrano[2,3-b]indole] | – | ~750 | – | – | – | 0.54 | 21.2 | 40 | 17.8
5 | CNCC1CCS(=O)(=O)c2[nH]c3ccccc3c21 (stereo not shown) [Comp. 3, 4-Methylaminomethyl-2,3,4,9-tetrahydrothiopyrano[2,3-b]indole S-dioxide] | – | ~750 | – | – | – | 2.9 | 11.7 | 25 | 19.1
6 | COc1cc(C)nc(-n2nc(C)cc2OC)n1 [Mepirizole, reference compound] | – | 1150 | – | – | 552 | 13 | 110 | – | 130
